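Tested at 5 concentrations; 48 h exposure; 96-well plates; endpoints linearly interpolated, else capped at highest concentration. TGI is the concentration that stops growth completely.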
What was measured:
Assay in all cases: NCI-60 cell line screen, 48 h
[1] = tested on: 786-0 renal
[2] = tested on: A549 NSCLC
[3] = tested on: BT-549 breast
[4] = tested on: CAKI-1 renal
[5] = tested on: CCRF-CEM leukemia
[6] = tested on: HL-60(TB) leukemia
[7] = tested on: KM12 colon
[8] = tested on: LOX IMVI melanoma
[9] = tested on: M14 melanoma
[10] = tested on: MDA-MB-435
[11] = tested on: NCI-H23 lung
[12] = tested on: OVCAR-4 ovarian
[13] = tested on: OVCAR-5 ovarian
[14] = tested on: OVCAR-8 ovarian
[15] = tested on: PC-3 prostate
[16] = tested on: RXF 393 renal
[17] = tested on: SK-MEL-28 melanoma
[18] = tested on: SNB-19 CNS
[19] = tested on: UACC-62 melanoma
[20] = tested on: SR leukemia

## CCOP(=O)(OCC)/C(=C/c1ccccc1)CC(C)=O
[1]
  TGI: > 100 µM
[2]
  TGI: > 100 µM
[3]
  TGI: > 100 µM
[4]
  TGI: > 100 µM
[5]
  TGI: > 100 µM
[6]
  TGI: 68.7 µM
[7]
  TGI: > 100 µM
[8]
  TGI: > 100 µM
[9]
  TGI: > 100 µM
[10]
  TGI: > 100 µM
[11]
  TGI: > 100 µM
[12]
  TGI: > 100 µM
[13]
  TGI: > 100 µM
[14]
  TGI: > 100 µM
[15]
  TGI: > 100 µM
[16]
  TGI: > 100 µM
[17]
  TGI: > 100 µM
[18]
  TGI: > 100 µM
[19]
  TGI: > 100 µM

## O=C(c1ccsc1)c1cc2c(s1)C(=O)c1ccsc1C2=O
[1]
  TGI: 0.356 µM
[2]
  TGI: 1.25 µM
[3]
  TGI: 0.198 µM
[4]
  TGI: 1.57 µM
[5]
  TGI: > 100 µM
[6]
  TGI: > 100 µM
[7]
  TGI: 0.434 µM
[9]
  TGI: 0.247 µM
[10]
  TGI: 0.0696 µM
[11]
  TGI: 0.308 µM
[12]
  TGI: 0.335 µM
[13]
  TGI: 1.01 µM
[14]
  TGI: 0.424 µM
[15]
  TGI: 0.933 µM
[16]
  TGI: 0.385 µM
[17]
  TGI: 0.305 µM
[18]
  TGI: 0.354 µM
[20]
  TGI: > 100 µM
[19]
  TGI: 0.385 µM

## Brc1ccc(-c2ccc(-c3ccc(-c4ccc(Br)s4)s3)s2)s1
[1]
  TGI: > 100 µM
[2]
  TGI: > 100 µM
[3]
  TGI: > 100 µM
[4]
  TGI: > 100 µM
[5]
  TGI: > 100 µM
[6]
  TGI: > 100 µM
[7]
  TGI: > 100 µM
[8]
  TGI: > 100 µM
[9]
  TGI: > 100 µM
[10]
  TGI: > 100 µM
[11]
  TGI: > 100 µM
[12]
  TGI: > 100 µM
[13]
  TGI: > 100 µM
[14]
  TGI: > 100 µM
[15]
  TGI: > 100 µM
[16]
  TGI: > 100 µM
[17]
  TGI: > 100 µM
[20]
  TGI: > 100 µM
[19]
  TGI: > 100 µM

## CC(C)N(CCCNc1c2ccccc2nc2cccc([N+](=O)[O-])c12)C(C)C
[1]
  TGI: 0.155 µM
[2]
  TGI: 0.0473 µM
[3]
  TGI: < 0.0442 µM
[4]
  TGI: 0.593 µM
[5]
  TGI: 0.0806 µM
[8]
  TGI: 0.0637 µM
[9]
  TGI: < 0.01 µM
[10]
  TGI: < 0.018 µM
[11]
  TGI: < 0.0183 µM
[12]
  TGI: 0.103 µM
[14]
  TGI: < 0.0467 µM
[15]
  TGI: 0.527 µM
[16]
  TGI: 0.0377 µM
[17]
  TGI: < 0.01 µM
[18]
  TGI: 0.121 µM
[20]
  TGI: 11.8 µM

## CCOC(=O)CC/C(C)=N\n1c(Cc2ccc(Cl)cc2)n[nH]c1=O
[1]
  TGI: > 100 µM
[2]
  TGI: > 100 µM
[3]
  TGI: > 100 µM
[4]
  TGI: > 100 µM
[6]
  TGI: > 100 µM
[7]
  TGI: > 100 µM
[8]
  TGI: > 100 µM
[9]
  TGI: > 100 µM
[10]
  TGI: > 100 µM
[11]
  TGI: > 100 µM
[13]
  TGI: 55.5 µM
[14]
  TGI: > 100 µM
[15]
  TGI: > 100 µM
[16]
  TGI: > 100 µM
[17]
  TGI: > 100 µM
[18]
  TGI: > 100 µM
[20]
  TGI: > 100 µM
[19]
  TGI: > 100 µM

## CCOC(=O)N/N=C/C1=NN(C(=O)OCC)S(=O)C1C (centres undefined)
[1]
  TGI: > 100 µM
[2]
  TGI: > 100 µM
[3]
  TGI: > 100 µM
[4]
  TGI: > 100 µM
[5]
  TGI: > 100 µM
[6]
  TGI: > 100 µM
[7]
  TGI: > 100 µM
[9]
  TGI: > 100 µM
[10]
  TGI: > 100 µM
[11]
  TGI: > 100 µM
[12]
  TGI: > 100 µM
[13]
  TGI: > 100 µM
[14]
  TGI: > 100 µM
[15]
  TGI: > 100 µM
[16]
  TGI: > 100 µM
[17]
  TGI: > 100 µM
[18]
  TGI: > 100 µM
[20]
  TGI: > 100 µM
[19]
  TGI: > 100 µM

## COc1cc(O)c2c(=O)c3ccccc3n(C)c2c1
[1]
  TGI: > 100 µM
[2]
  TGI: > 100 µM
[3]
  TGI: > 100 µM
[4]
  TGI: > 100 µM
[5]
  TGI: > 100 µM
[6]
  TGI: > 100 µM
[7]
  TGI: > 100 µM
[8]
  TGI: > 100 µM
[9]
  TGI: > 100 µM
[10]
  TGI: > 100 µM
[11]
  TGI: > 100 µM
[12]
  TGI: > 100 µM
[13]
  TGI: > 100 µM
[14]
  TGI: > 100 µM
[15]
  TGI: > 100 µM
[16]
  TGI: 51.4 µM
[17]
  TGI: > 100 µM
[20]
  TGI: > 100 µM
[19]
  TGI: > 100 µM

## O=C(O)C(F)(OC(F)(F)C(F)(F)C(F)(F)F)C(F)(F)F (centres undefined)
[1]
  TGI: > 100 µM
[2]
  TGI: > 100 µM
[3]
  TGI: > 100 µM
[4]
  TGI: > 100 µM
[6]
  TGI: > 100 µM
[7]
  TGI: > 100 µM
[8]
  TGI: > 100 µM
[9]
  TGI: > 100 µM
[10]
  TGI: > 100 µM
[11]
  TGI: > 100 µM
[12]
  TGI: > 100 µM
[13]
  TGI: > 100 µM
[14]
  TGI: > 100 µM
[15]
  TGI: > 100 µM
[16]
  TGI: > 100 µM
[17]
  TGI: > 100 µM
[18]
  TGI: > 100 µM
[19]
  TGI: > 100 µM

## O=c1oc2ccccc2c(-c2ccc(O)cc2)c1Oc1ccc(Cl)cc1
[1]
  TGI: 73 µM
[2]
  TGI: 47.3 µM
[3]
  TGI: 84.3 µM
[4]
  TGI: > 100 µM
[5]
  TGI: 52.9 µM
[7]
  TGI: > 100 µM
[8]
  TGI: 62 µM
[9]
  TGI: 39 µM
[10]
  TGI: > 100 µM
[11]
  TGI: 68.6 µM
[12]
  TGI: > 100 µM
[13]
  TGI: > 100 µM
[14]
  TGI: 69.7 µM
[15]
  TGI: 97.1 µM
[16]
  TGI: 57.8 µM
[17]
  TGI: > 100 µM
[18]
  TGI: 67 µM
[20]
  TGI: 51.9 µM
[19]
  TGI: 63.3 µM

## O=C(CN1CCOCC1)c1ccc2[nH]c(=O)oc2c1
[1]
  TGI: > 100 µM
[3]
  TGI: > 100 µM
[4]
  TGI: > 100 µM
[5]
  TGI: > 100 µM
[6]
  TGI: > 100 µM
[7]
  TGI: > 100 µM
[8]
  TGI: > 100 µM
[9]
  TGI: > 100 µM
[10]
  TGI: > 100 µM
[11]
  TGI: > 100 µM
[13]
  TGI: > 100 µM
[14]
  TGI: > 100 µM
[15]
  TGI: > 100 µM
[16]
  TGI: > 100 µM
[17]
  TGI: > 100 µM
[18]
  TGI: > 100 µM
[20]
  TGI: > 100 µM
[19]
  TGI: > 100 µM

## COc1ccc(Cc2cc(OC)c(OC)c(OC)c2)cc1O
[1]
  TGI: > 100 µM
[2]
  TGI: > 100 µM
[3]
  TGI: > 100 µM
[4]
  TGI: > 100 µM
[5]
  TGI: > 100 µM
[6]
  TGI: > 26.6 µM
[8]
  TGI: > 100 µM
[9]
  TGI: > 100 µM
[10]
  TGI: > 100 µM
[11]
  TGI: > 100 µM
[12]
  TGI: > 100 µM
[13]
  TGI: > 100 µM
[14]
  TGI: > 100 µM
[15]
  TGI: > 100 µM
[16]
  TGI: > 100 µM
[17]
  TGI: > 100 µM
[18]
  TGI: > 100 µM
[20]
  TGI: > 100 µM
[19]
  TGI: > 73.2 µM

## NC(=S)SC1=NNC2(C(=O)N1)c1ccccc1-c1ccccc12
[1]
  TGI: > 10 µM
[2]
  TGI: > 10 µM
[3]
  TGI: > 10 µM
[4]
  TGI: > 10 µM
[5]
  TGI: > 10 µM
[6]
  TGI: > 10 µM
[7]
  TGI: > 10 µM
[8]
  TGI: > 10 µM
[9]
  TGI: > 10 µM
[10]
  TGI: > 10 µM
[11]
  TGI: > 10 µM
[12]
  TGI: > 10 µM
[14]
  TGI: > 10 µM
[15]
  TGI: > 10 µM
[16]
  TGI: > 10 µM
[17]
  TGI: > 10 µM
[18]
  TGI: > 10 µM
[20]
  TGI: > 10 µM
[19]
  TGI: > 10 µM

## COc1cccc(N=N/C(=N/NC(=O)c2cc(Cl)ccc2O)c2ccc(N(CCC#N)CCC#N)cc2C)c1
[1]
  TGI: > 100 µM
[2]
  TGI: > 100 µM
[3]
  TGI: > 100 µM
[4]
  TGI: > 100 µM
[5]
  TGI: > 100 µM
[7]
  TGI: > 100 µM
[9]
  TGI: > 100 µM
[10]
  TGI: > 100 µM
[11]
  TGI: > 100 µM
[12]
  TGI: > 100 µM
[13]
  TGI: > 100 µM
[14]
  TGI: 55.3 µM
[15]
  TGI: > 100 µM
[16]
  TGI: > 100 µM
[18]
  TGI: > 100 µM
[20]
  TGI: > 100 µM
[19]
  TGI: > 100 µM
